Experiment [1] addresses T1, SePSK (Synechococcus elongatus, UniProt Q31KC7, D8A).
T1 construct: gene PSK; full length (426 aa), pET28-a (Nco I/Xho I), C-terminal His6 tag kept, E. coli BL21(DE3)
In words: surface plasmon resonance (single-cycle kinetics, CM5). Particulars: rate constant (off-rate), not an equilibrium Kd; 1:1 Langmuir fit; 20 mM HEPES pH 7.5, 100 mM NaCl; 298 K. It counts as binding.

Experiment [2] has as its target T1, SePSK. In words: ADP-Glo kinase assay. It counts as biochemical. Particulars: 5 mM D-ribulose, 100 uM ATP, 1 mM MgCl2, 20 mM HEPES pH 7.4, 298 K; activity much lower than wild type.
For experiment [3], the target named is T2, SePSK (Synechococcus elongatus, UniProt Q31KC7, T11A).
T2 construct: gene PSK; full length (426 aa), pET28-a (Nco I/Xho I), C-terminal His6 tag kept, E. coli BL21(DE3)
T2 sequence (Q31KC7 whole entry T11A): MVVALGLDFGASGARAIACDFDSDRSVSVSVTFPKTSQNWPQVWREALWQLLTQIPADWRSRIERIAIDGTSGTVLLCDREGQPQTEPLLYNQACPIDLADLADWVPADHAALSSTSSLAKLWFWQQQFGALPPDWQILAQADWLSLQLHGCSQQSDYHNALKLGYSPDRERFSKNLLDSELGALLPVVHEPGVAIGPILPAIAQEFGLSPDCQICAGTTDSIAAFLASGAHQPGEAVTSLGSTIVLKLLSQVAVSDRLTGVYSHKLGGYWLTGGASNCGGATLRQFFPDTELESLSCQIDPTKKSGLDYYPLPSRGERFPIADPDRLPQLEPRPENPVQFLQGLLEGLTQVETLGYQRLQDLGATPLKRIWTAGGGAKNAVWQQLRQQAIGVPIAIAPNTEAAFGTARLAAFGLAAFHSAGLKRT
In words: ADP-Glo kinase assay. Particulars: 5 mM D-ribulose, 100 uM ATP, 1 mM MgCl2, 20 mM HEPES pH 7.4, 298 K; activity much lower than wild type. It counts as biochemical.

In experiment [4] the target is T3, SePSK (Synechococcus elongatus, UniProt Q31KC7, D221A).
T3 construct: gene PSK; full length (426 aa), pET28-a (Nco I/Xho I), C-terminal His6 tag kept, E. coli BL21(DE3)
T3 sequence (Q31KC7 whole entry D221A): as the sequence (Q31KC7 whole entry T11A) above, with A11T, D221A counted along it
Nature of the experiment: ADP-Glo kinase assay. The experiment is classed as biochemical. Particulars: 5 mM D-ribulose, 100 uM ATP, 1 mM MgCl2, 20 mM HEPES pH 7.4, 298 K; activity much lower than wild type.

In experiment [5] the target is T4, AtXK-1 (Arabidopsis thaliana, UniProt Q8L794).
T4 construct: gene XK1; mature form (436 aa) without chloroplast transit peptide; forward primer encodes VMSGNKGT; pMCSG7, N-terminal His6 removed by TEV protease, E. coli BL21(DE3)
T4 sequence (Q8L794 43-478): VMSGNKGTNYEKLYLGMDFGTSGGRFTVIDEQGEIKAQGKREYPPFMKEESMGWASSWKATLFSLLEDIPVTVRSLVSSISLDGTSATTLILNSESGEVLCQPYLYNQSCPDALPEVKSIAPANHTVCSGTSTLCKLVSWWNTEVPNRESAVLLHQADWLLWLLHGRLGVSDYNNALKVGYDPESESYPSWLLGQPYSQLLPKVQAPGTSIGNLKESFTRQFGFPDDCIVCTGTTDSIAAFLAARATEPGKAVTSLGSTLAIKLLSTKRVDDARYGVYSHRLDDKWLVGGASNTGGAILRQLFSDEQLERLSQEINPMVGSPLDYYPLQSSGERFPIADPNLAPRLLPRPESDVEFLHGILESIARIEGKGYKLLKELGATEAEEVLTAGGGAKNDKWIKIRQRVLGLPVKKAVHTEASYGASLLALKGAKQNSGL
Nature of the experiment: ADP-Glo kinase assay. The experiment is classed as biochemical. Particulars: 100 uM ATP, no sugar, 1 mM MgCl2, 20 mM HEPES pH 7.4, 298 K. On the technique in general: ADP-Glo first removes unused ATP, then detects ADP through luciferase.

Experiment [6] concerns the target T5, SePSK (Synechococcus elongatus, UniProt Q31KC7).
T5 construct: gene PSK; full length (426 aa), pET28-a (Nco I/Xho I), C-terminal His6 tag kept, E. coli BL21(DE3)
In words: ADP-Glo kinase assay. It counts as biochemical. Particulars: 100 uM ATP, no sugar, 1 mM MgCl2, 20 mM HEPES pH 7.4, 298 K.

Experiment [7] addresses T5, SePSK. Nature of the experiment: X-ray crystal structure, […] A (soak). It counts as binding. Particulars: crystal soaked in 10 mM AMP-PNP, 20 mM MgCl2; ATP site in domain II.
The target of experiment [8] is T4, AtXK-1. In words: X-ray crystal structure (soak). It counts as binding. Particulars: crystal soaked in 10 mM AMP-PNP, 20 mM MgCl2; ATP site in domain II.

Molecules are shown by their SMILES.

T5 sequence (Q31KC7 whole entry): as the sequence (Q31KC7 whole entry T11A) above, with A11T counted along it
T1 sequence (Q31KC7 whole entry D8A): as the sequence (Q31KC7 whole entry T11A) above, with D8A, A11T counted along it

As for `O=C(CO)[C@H](O)[C@H](O)CO` [D-ribulose], the “Dissociation rate constant (koff)” value at SePSK [1] was determined as 9 ms^-1. Moreover, the ADP-Glo kinase assay result on SePSK [2], on SePSK [3] and on SePSK [4] was “all of these mutants exhibit much lower activity of ATP hydrolysis after adding D-ribulose” throughout.

In the case of `Nc1ncnc2c1ncn2[C@@H]1O[C@H](COP(=O)(O)OP(=O)(O)OP(=O)(O)O)[C@@H](O)[C@H]1O` [ATP], the ADP-Glo kinase assay result at AtXK-1 [5] is “both SePSK and AtXK-1 exhibited ATP hydrolysis activity”; on SePSK [6] it was “both SePSK and AtXK-1 exhibited ATP hydrolysis activity”.

As to `Nc1ncnc2c1ncn2[C@@H]1O[C@H](COP(=O)(O)OP(=O)(O)NP(=O)(O)O)[C@@H](O)[C@H]1O` [AMP-PNP], the “X-ray crystal structure, 2.3 A (soak)” value on SePSK [7] is “one SePSK protein molecule is in an asymmetric unit with one AMP-PNP molecule”. The “X-ray crystal structure (soak)” value at AtXK-1 [8] is “soaked the crystals of apo-SePSK and apo-AtXK-1 into the reservoir adding AMP-PNP”.

Values taken from article PMC4880283, “Crystal Structures of Putative Sugar Kinases from Synechococcus Elongatus PCC 7942 and Arabidopsis Thaliana” (PLoS ONE, 2016).
